Where “and” joins values, the source holds several entries; their conditions need not be identical. Equal values may be shown once. Read-outs that look alike come from different tables or passages of the source.
Legend:
[1] = aqueous solution, cited from earlier work
[2] = cited from earlier work
[3] = aqueous solution

Nc1ncn([C@H]2C[C@H](O)[C@@H](CO)O2)c(=O)n1 [decitabine, 5-aza-2′-deoxycytidine]
decrease of concentration of decitabine ([1]; after 4 hours at 25° C.): about 10%
decrease of concentration of decitabine ([1]; after 24 hours at 4° C.): about 10%
decitabine concentration in patients ([2]; 100 mg/m^2 as a 3-hour infusion): about 0.4 μg/ml and ~2 μM
total urinary excretion, % of the administered dose ([2]; humans): less than 1%
volume of distribution ([2]; humans): about 4.6 L/kg
decitabine remaining in active form ([3]; storage at 4° C. for 6 days): less than 50%
decitabine remaining in active form ([3]; storage at 25° C. for 1 day): less than 50%

Reference: patent US7135464B2, “Method of administering decitabine” (SuperGen, Inc., priority 2002, dated 2006)
